Where “and” joins values, the source holds several entries; their conditions need not be identical. Equal values may be shown once.
Assays:
[1] = test system: female Aedes aegypti adults; assay: Arm-in-cage cloth-patch in vivo assay (topical repellency); conditions: for Minimum Effective Dose (MED): Mean ± SEM, lowest dosage with five or fewer bites through repellent-treated cloth in 1-minute exposure, at least three volunteers; for topical repellency (in words): initial screening dose of 0.187 mg/cm^2; for MED, times lower than the initial screening dose: relative to initial screening dose of 0.187 mg/cm^2
Text: Arm-in-Cage Test Cloth-Patch in vivo Assay Pyrethroid-susceptible yellow fever mosquitoes Ae. aegypti (Orlando strain) were reared in the United States Department of Agriculture Mosquito and Fly Research Unit in Gainesville, FL under standard protocols. Three to seven-day-old, starved female mosquitoes were collected using a “draw box” (Posey, K. and Schreck, C. E, 1981, “An airflow apparatus for selecting female mosquitoes for use in repellent and attraction studies” Mosquito News 41: 566-568; US. Department of Agriculture, 1977, Repellent activity of compounds submitted by Walter Reed Army Institute of Research. Part 1. Protection time and minimum effective dosage against Aedes aegypti mosquitoes. Tech. Bull. No. 1549) and were placed in cages at an approximate density 200 mosquitoes/cage. Repellency was determined according to a standard protocol (Bernier, U. R., et al, 2022. “Evaluation and application of repellent-treated uniform/clothing and textiles against vector mosquitoes,” In Advances in Arthropod Repellents (pp. 69-94). Academic Press) and reported as the minimum effective dosage (MED). […] A nylon leg stocking was placed over the arm to prevent direct contact of the repellent-treated cloth patch with the skin. […]. Cloth was treated by placing a rolled bandage (50 cm^2) into each vial containing 1 mL of solution and allowing the patch to absorb the solution completely. The cloth was taped over a 4 by 9-cm opening cut into a vinyl plastic sheet that was draped around the volunteers' arms and taped in place. The cloth was air-dried approximately 15 min before conducting each test. The work reported here is an average of the MED for at least three volunteers. Each volunteer covered his or her arm with a nylon stocking to avoid contact between the skin and the treated cloth and wore a rubber glove to prevent mosquito bites on the hand.
. The minimum effective dose (MED) was determined for each repellent and subject, defined as the lowest concentration that prevents biting). MEDs from each subject were pooled and reported as the average among all replicates/subjects with SEM. A minimum of 3 replicates were performed on at least three human subjects. Written informed consent was obtained for all human subjects used in this study in accordance with IRB protocol #20193320, as approved by the WCG™ IRB.
Statistical Analyses: Student's T-test was used to compare the means between tested compound and DEET and Icaridin in the arm-in-cage in vivo assay and neurophysiological study.

[2] = test system: female Aedes aegypti adults; assay: High-throughput in vitro screening assay, spatial repellency; type: in vivo; conditions: for RD50 (30 min), half-repellent dose / RD50 (60 min), half-repellent dose: dose per filter paper surface area, 95% CI; for spatial repellency (in words): highest-tested dose of 100 μg/cm^2; for 30-minute RD50 compared with that of DEET: 30 minutes, α = 0.05
Text: A high-throughput screening method for evaluating spatial repellency and vapor toxicity, described by Jiang S., et al. (2019, “High-Throughput Screening Method for Evaluating Spatial Repellency and Vapour Toxicity to Mosquitoes,” Med. Vet. Entomol. 33: 388-396), was used for this study. As shown in FIG. 2 of Jiang S., et al., assay tubes were constructed by covering 12.5 cm glass tubes on one side with netting secured by a rubber band. The tubes were used in horizontal orientation. Adult mosquitos 2-7 days old were anesthetized on ice for approximately 5 minutes and 16 females were transferred to each tube. The other end of the tube was then closed with netting and a rubber band.
The conical ends of 50 mL centrifuge tubes (Eppendorf, Enfield, Connecticut, USA) were cut at approximately the 10 mL mark to create the end caps for the assay tubes. […] For repellency tests, filter papers for the “untreated” side of the assay tube received pure acetone, whereas filter papers for the “treated” side received acetone solution containing a dissolved compound of interest. For knockdown tests, both filter papers were treated with acetone solution containing one or more compounds of interest. Acetone on both filter papers served as negative controls.
For repellency assays, filter papers were given 10 minutes of evaporation time before being placed into the end caps with forceps (Jiang S., et al. 2019, Supra). For knockdown assays, filter papers were given 5 minutes of evaporation time before being placed into the end caps. […] Assay tubes were capped such that the cap securely overlapped the glass but approximately 5 mm of space was left between the netting and the filter paper so that the mosquitos could not contact the filter paper.
Assay tubes were placed on a white polystyrene platform with wooden sticks glued flatly across it to prevent the tubes from rolling. A straight black line was drawn down the center of the platform and assay tubes were centered on the line at the beginning of the tests. In repellency assays, data were collected at 15, 30, and 60 minutes after the end caps were placed on the assay tubes. Assay tubes were not disturbed for the entire 60 minutes. At each time point, the number of mosquitos that remained on the treated side was visually assessed and recorded. The treated side was alternated with each set of tests. For repellency tests, DEET at a dose of 100 μg/cm^2 served as the positive control.
For the high-throughput in vitro screening assays, analyses were conducted with R version 4.2.2 statistical software (R Core Team, 2022, “R: a language and environment for statistical computing. R foundation for statistical computing,” Vienna, Austria). Concentrations were calculated in terms of filter paper surface area (μg/cm^2) for repellency assays and in terms of assay tube volume (μg/cm^3) for knockdown assays.
Half-repellent (RD50), half-knockdown (KD50), and half-lethal (LD50) doses were calculated from dose-response curves (DRCs) obtained by four-parameter log-logistic equation models generated using the drc package (Dose Response Curve Analyses Software; Ritz C. et al., 2015, “Dose-response analysis using R,” PLOS ONE 10: e0146021). For repellency test analysis, the upper and lower asymptotes for the proportion of mosquitos remaining on the treated side were fixed at 0.5 and 0, respectively. For KD and mortality test analysis, the upper and lower asymptotes for the proportion of mosquitos knocked down or killed were fixed at 1.0 and 0, respectively. To determine whether RD50, KD50, or LD50 values differed across compounds at each timepoint, a joint model assuming different values for each compound and a null model that assumed a single value for all compounds were compared with a likelihood ratio test.

SMILES	Minimum Effective Dose (MED) [1]	topical repellency (in words) [1]	RD50 (30 min), half-repellent dose [2] [μg/cm^2]	RD50 (60 min), half-repellent dose [2] [μg/cm^2]	spatial repellency (in words) [2]	MED, times lower than the initial screening dose [1] [times]	30-minute RD50 compared with that of DEET [2]
C=COC(=O)c1ccccc1 [VB, vinyl benzoate]	>0.187 mg/cm^2	did not show any topical repellencies	>100	>100	did not show spatial repellencies	–	–
CCOC(=O)c1ccccc1NC=O [EFA, ethyl N-formylanthranilate]	0.0062 mg/cm^2	–	>100	>100	did not show spatial repellencies	30	–
CC(C)COC(=O)c1ccccc1N [iBA, iso-butyl anthranilate]	–	–	–	–	–	–	not significantly different from that of DEET
COC(=O)c1ccccc1Cl [M2CB, methyl 2-chlorobenzoate]	0.164 mg/cm^2	demonstrated repellency at doses lower than 0.187 mg/cm^2 on at least one test subject	–	–	–	–	not significantly different from that of DEET
COC(=O)c1cccc(C)c1 [M3MB, methyl 3-methylbenzoate]	0.219 mg/cm^2	demonstrated repellency at doses lower than 0.187 mg/cm^2 on at least one test subject	>100	>100	did not show spatial repellencies	–	–
COC(=O)c1ccc(C)cc1 [M4MB, methyl 4-methylbenzoate]	>0.187 mg/cm^2	did not show any topical repellencies	>100	>100	did not show spatial repellencies	–	–
CCCCOC(=O)c1ccc(O)cc1 [nB4HB, n-butyl 4-hydroxybenzoate]	>0.187 mg/cm^2	did not show any topical repellencies	>100	>100	did not show spatial repellencies	–	–
CC(C)OC(=O)c1ccccc1 [iPrB, iso-propyl benzoate]	>0.187 mg/cm^2	did not show any topical repellencies	>100	>100	did not show spatial repellencies	–	–
O=C(OCc1ccccc1)c1ccccc1 [BB, benzyl benzoate]	>0.187 mg/cm^2	did not show any topical repellencies	>100	>100	did not show spatial repellencies	–	–
COC(=O)c1ccccc1S(N)(=O)=O [M2ASB, methyl 2-(aminosulfonyl)benzoate]	>0.187 mg/cm^2	did not show any topical repellencies	>100	>100	did not show spatial repellencies	–	–
CCC(C)OC(=O)N1CCCCC1CCO (stereo not drawn) [Icaridin, 1-(1-Methylpropoxycarbonyl)-2-(2-hydroxyethyl)piperidine, reference compound]	0.0150±0.004 mg/cm^2 and 0.0150 mg/cm^2	–	–	–	–	–	–
COC(=O)c1cccc(OC)c1 [M3MOB, methyl 3-methoxybenzoate]	0.266 mg/cm^2	demonstrated repellency at doses lower than 0.187 mg/cm^2 on at least one test subject	–	–	–	–	not significantly different from that of DEET
CCCOC(=O)c1ccccc1 [nPrB, n-propyl benzoate]	0.250 mg/cm^2	demonstrated repellency at doses lower than 0.187 mg/cm^2 on at least one test subject	>100	>100	did not show spatial repellencies	–	–
CCOC(=O)c1ccccc1N [EA, ethyl anthranilate]	0.037 mg/cm^2	–	–	–	–	–	significantly lower than that of DEET
COC(=O)c1ccccc1N [MA, methyl anthranilate]	0.027 mg/cm^2	–	11.84	–	–	–	significantly lower than that of DEET
O=C(OCCc1ccccc1)c1ccccc1 [PhEB, phenethyl benzoate]	>0.187 mg/cm^2	did not show any topical repellencies	>100	>100	did not show spatial repellencies	–	–
CCCOC(=O)c1ccc(O)cc1 [nPr4HB, n-propyl 4-hydroxylbenzoate]	>0.187 mg/cm^2	did not show any topical repellencies	>100	>100	did not show spatial repellencies	–	–
CCCCOC(=O)c1ccccc1NC=O [nBFA, n-Butyl N-formylanthranilate]	0.0075 mg/cm^2	–	>100	>100	did not show any spatial repellencies	25	–
COC(=O)c1ccc(C(F)(F)F)cc1 [M4tFMB, methyl 4-(trifluoromethyl)benzoate]	>0.187 mg/cm^2	did not show any topical repellencies	>100	>100	did not show spatial repellencies	–	–
CCCCOC(=O)c1ccccc1N [nBA, n-butyl anthranilate]	–	–	>100	–	did not show any spatial repellencies	–	–
CNc1ccccc1C(=O)OC [MMA, methyl N-methylanthranilate]	–	–	–	–	–	–	significantly lower than that of DEET
